This is an account of results in patent US6818657B1, “Bioprecursors of a retinoic derivative and pharmaceutical and/or cosmetic compositions” (Pierre Fabre Dermo-Cosmetique, priority 1999, dated 2004).

Data set [1] addresses T1, recombinant β-glucocerebrosidase (Homo sapiens, UniProt P04062).
T1 construct: histidine tail (His tag) (C); made in house
T1 sequence (P04062 40-536): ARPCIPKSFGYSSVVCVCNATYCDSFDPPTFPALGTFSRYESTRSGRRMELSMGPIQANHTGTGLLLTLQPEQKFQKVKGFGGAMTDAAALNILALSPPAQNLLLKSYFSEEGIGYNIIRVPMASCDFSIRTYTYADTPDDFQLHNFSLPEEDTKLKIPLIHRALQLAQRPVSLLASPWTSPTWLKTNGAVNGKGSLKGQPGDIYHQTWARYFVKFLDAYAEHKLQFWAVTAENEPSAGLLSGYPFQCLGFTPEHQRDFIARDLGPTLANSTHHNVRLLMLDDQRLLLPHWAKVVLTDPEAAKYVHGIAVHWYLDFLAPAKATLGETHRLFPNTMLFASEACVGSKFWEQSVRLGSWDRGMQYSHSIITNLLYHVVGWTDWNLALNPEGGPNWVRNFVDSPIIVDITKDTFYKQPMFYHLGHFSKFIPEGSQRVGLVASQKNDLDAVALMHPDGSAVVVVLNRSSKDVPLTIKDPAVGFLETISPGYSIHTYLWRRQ
As to the kind of experiment: Michaelis constants (Km) and Vm of recombinant β-glucocerebrosidase for pseudosubstrates. The class given is biochemical. To be noted: phthalate buffer pH 5.6 (0.025 M), taurocholate 5 mM, purified β-glucocerebrosidase, 30 minutes incubation. On the procedure: After confirming that β-glucocerebrosidase is expressed in the keratinocytes, we produced a recombinant enzyme in the baculovirus system. A histidine tail was added to the COOH end of the protein to allow it to be purified by affinity column chromatography.
Thus, we were able to determine the Michaelis constants (Km) and the Vm values of the recombinant β-glucocerebrosidase in particular for the retinoic acid-arbutin glucoconjugate. The kinetics measurements are carried out in a phthalate buffer at pH 5.6 (0.025 M) containing taurocholate (5 mM), purified β-glucocerebrosidase and the test conjugate at various concentrations. The incubation lasts 30 minutes and the amount of hydroquinone-retinoic acid conjugate released is assayed by HPLC. The table below gives the results obtained. […] As regards their rates of hydrolysis, these are lower and thus allow effects to be obtained over time.

Data set [2] can be described thus: Distribution in the stratum corneum after topical application. The class given is in vivo.

By Km is commonly meant the concentration of substrate that gives half-maximal velocity. For the compound `Cc1cc(=O)oc2cc(O[C@@H]3O[C@H](CO)[C@@H](O)[C@H](O)[C@H]3O)ccc12` [4-Methylumbelliferyl-glucopyranoside, 4-methyl-umbelliferyl-β-D-glucopyranoside], in data set [1], the Michaelis constant (Km) turned out to be 2800 ± 700 µM and the “Vm weighted by the amount of soluble proteins” value is reported as 4000 ± 1000 nmol/h/mg. Turning to `Cc1c(C)c2c(c(C)c1O)CC[C@@](C)(CCC[C@H](C)CCC[C@H](C)CCCC(C)C)O2` [vitamin E (α-tocopherol), α-tocopherol], the “location in the stratum corneum after topical application” value in data set [2] (topical application, same excipient) was “accumulate in the upper layers of the stratum corneum after topical application and are removed by desquamation”. On to `CC1=C(/C=C/C(C)=C/C=C/C(C)=C/C(=O)O)C(C)(C)CCC1` [retinoic acid], for which the “location in the stratum corneum after topical application” value in data set [2] (in vivo) was “accumulate in the upper layers of the stratum corneum after topical application and are removed by desquamation”. Consider `Cc1cc(O[C@@H]2O[C@H](CO)[C@@H](O)[C@H](O)[C@H]2O)cc2c1O[C@](C)(CCC[C@H](C)CCC[C@H](C)CCCC(C)C)CC2` [δ-Tocopheryl-glucopyranoside], for which, in data set [1], the “Vm weighted by the amount of soluble proteins” value was found to be 453 ± 20 nmol/h/mg. In addition, in data set [1] (HPLC assay), the Michaelis-Menten constant (Km) amounted to 7 ± 1 µM.
